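How tested: cells in 96-well plates exposed to compound for 48 hours at five concentrations. Abbreviation: GI50, concentration required for 50% inhibition of growth.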 Active and inactive are the calls of the source. Rule as the data show it: active = GI50 up to about 1.1 µM and inactive = higher.
Assays:
Test in all cases: inhibition of tumour cell growth, NCI panel, 48 h
M19-MEL = system: M19-MEL
SK-MEL-2 = system: SK-MEL-2
SW-620 = system: SW-620
786-0 = system: 786-0
UO-31 = system: UO-31
HL-60 = system: HL-60
NCI-H23 = system: NCI-H23
A549 = system: A549
CAKI-1 = system: CAKI-1
HT-29 = system: HT-29
HOP-62 = system: HOP-62
NCI-H522 = system: NCI-H522
SK-MEL-28 = system: SK-MEL-28
ACHN = system: ACHN
SK-OV-3 = system: SK-OV-3
SF-539 = system: SF-539

SMILES	GI50 (M19-MEL)	GI50 (SK-MEL-2)	GI50 (SW-620)	GI50 (786-0)	GI50 (UO-31)	GI50 (HL-60)	GI50 (NCI-H23)	GI50 (A549)	GI50 (CAKI-1)	GI50 (HT-29)	GI50 (HOP-62)	GI50 (NCI-H522)	GI50 (SK-MEL-28)	GI50 (ACHN)	GI50 (SK-OV-3)	GI50 (SF-539)
CCCCCCCCCCCC(=O)OCC1OC(n2cc(F)c(=O)[nH]c2=O)C(N)C(OC(=O)CCCCCCCCCCC)C1O (centres undefined)	> 100 µM (inactive)	> 100 µM (inactive)	68.4 µM (inactive)	> 100 µM (inactive)	> 100 µM (inactive)	29.6 µM (inactive)	> 100 µM (inactive)	> 100 µM (inactive)	> 100 µM (inactive)	> 100 µM (inactive)	> 100 µM (inactive)	31.6 µM (inactive)	> 100 µM (inactive)	> 100 µM (inactive)	> 100 µM (inactive)	69.7 µM (inactive)
O=C(O)CCCCCOc1cccnc1/C=N/NC1=NCCN1	> 100 µM (inactive)	> 100 µM (inactive)	> 100 µM (inactive)	> 100 µM (inactive)	> 100 µM (inactive)	> 100 µM (inactive)	> 100 µM (inactive)	> 100 µM (inactive)	> 100 µM (inactive)	> 100 µM (inactive)	> 100 µM (inactive)	> 100 µM (inactive)	> 100 µM (inactive)	> 100 µM (inactive)	> 100 µM (inactive)	> 100 µM (inactive)
O=c1nc(NC(c2ccccc2)(c2ccccc2)c2ccccc2)ccn1CCNCCn1ccc(NC(c2ccccc2)(c2ccccc2)c2ccccc2)nc1=O	4.46 µM (inactive)	2.66 µM (inactive)	6.64 µM (inactive)	14.1 µM (inactive)	> 100 µM (inactive)	2.41 µM (inactive)	12.5 µM (inactive)	26.2 µM (inactive)	14.8 µM (inactive)	5.83 µM (inactive)	15.5 µM (inactive)	4.66 µM (inactive)	6.07 µM (inactive)	40.6 µM (inactive)	19.6 µM (inactive)	11.3 µM (inactive)
COc1ccc(OCC(=O)O)c2c1CCC(C(C)C)C2=O (centres undefined)	> 100 µM (inactive)	> 100 µM (inactive)	> 100 µM (inactive)	> 100 µM (inactive)	> 100 µM (inactive)	> 100 µM (inactive)	> 100 µM (inactive)	> 100 µM (inactive)	> 100 µM (inactive)	> 100 µM (inactive)	> 100 µM (inactive)	> 100 µM (inactive)	> 100 µM (inactive)	> 100 µM (inactive)	> 100 µM (inactive)	> 100 µM (inactive)
CC(=O)OC(/C=C1/C=CC(=O)O1)COC(=O)c1ccccc1 (centres undefined) [ACETYLMELODORINOL]	> 31.2 µM (inactive)		> 31.2 µM (inactive)	> 31.2 µM (inactive)	> 31.2 µM (inactive)	> 31.2 µM (inactive)	> 31.2 µM (inactive)	> 31.2 µM (inactive)	> 31.2 µM (inactive)	> 31.2 µM (inactive)	> 31.2 µM (inactive)	> 31.2 µM (inactive)	> 31.2 µM (inactive)	> 31.2 µM (inactive)	> 31.2 µM (inactive)	> 31.2 µM (inactive)
COC(=O)C(C(=O)c1ccccc1)C(C(=O)C(=O)Nc1ccc(OC)cc1OC)C(=O)C(=O)c1ccc(C)cc1 (centres undefined)	> 100 µM (inactive)	> 100 µM (inactive)	> 100 µM (inactive)	> 100 µM (inactive)	> 100 µM (inactive)	> 100 µM (inactive)	> 100 µM (inactive)	> 100 µM (inactive)	> 100 µM (inactive)	> 100 µM (inactive)	> 100 µM (inactive)	> 100 µM (inactive)	> 100 µM (inactive)	> 100 µM (inactive)	> 100 µM (inactive)	> 100 µM (inactive)
CN(C)C(=S)/N=c1\ss/c(=N\c2ccccc2)n1-c1ccccc1	24.7 µM (inactive)	29.5 µM (inactive)	25 µM (inactive)	16.1 µM (inactive)	32.9 µM (inactive)	24.6 µM (inactive)	25.8 µM (inactive)	25.6 µM (inactive)	34.3 µM (inactive)	0.154 µM (active)	27.2 µM (inactive)	1.21 µM (inactive)	29 µM (inactive)	25.2 µM (inactive)	40.6 µM (inactive)	16.3 µM (inactive)
O=C(O)CSc1nnc(-c2ccc(O)cc2)[nH]1	> 100 µM (inactive)	> 100 µM (inactive)	> 100 µM (inactive)	> 100 µM (inactive)	> 100 µM (inactive)	> 100 µM (inactive)	> 100 µM (inactive)	> 100 µM (inactive)	> 100 µM (inactive)	> 100 µM (inactive)	> 100 µM (inactive)	> 100 µM (inactive)	> 100 µM (inactive)	> 100 µM (inactive)	> 100 µM (inactive)	> 100 µM (inactive)
O=C(CCc1nnc(S)[nH]1)Nc1ccccc1Cl	> 100 µM (inactive)	> 100 µM (inactive)	18.2 µM (inactive)	> 100 µM (inactive)	> 100 µM (inactive)	> 100 µM (inactive)	> 100 µM (inactive)	> 100 µM (inactive)	> 100 µM (inactive)	> 100 µM (inactive)	> 100 µM (inactive)	> 100 µM (inactive)	> 100 µM (inactive)	> 100 µM (inactive)	> 100 µM (inactive)	> 100 µM (inactive)
CC(=O)OCC1OC(OC2CC3C(C)(C)C(OC(C)=O)CC[C@]3(C)C3CCC45CC4(CC[C@H]5C(C)CC(O)[C@@H](O)C(C)(C)O)[C@]23C)C(O)C(O)C1O (some centres undefined)	7.55 µM (inactive)	9.38 µM (inactive)	7.69 µM (inactive)	7.82 µM (inactive)	6.38 µM (inactive)	3.5 µM (inactive)	8.53 µM (inactive)	8.02 µM (inactive)	7.21 µM (inactive)	8.05 µM (inactive)	5.86 µM (inactive)	1.82 µM (inactive)	7.4 µM (inactive)	7.98 µM (inactive)	5.83 µM (inactive)	7.31 µM (inactive)
N#C/C(c1nc2ccccc2[nH]1)=c1\s/c(=C/c2ccc(Cl)cc2)c(=O)n1-c1ccccc1	> 100 µM (inactive)	> 100 µM (inactive)	> 100 µM (inactive)	> 100 µM (inactive)	> 100 µM (inactive)	> 100 µM (inactive)	> 100 µM (inactive)	> 100 µM (inactive)	> 100 µM (inactive)		> 100 µM (inactive)	> 100 µM (inactive)	> 100 µM (inactive)	> 100 µM (inactive)	> 100 µM (inactive)	> 100 µM (inactive)
CCC(/C(=N/NC(=O)C[N+](C)(C)C)c1ccccc1)C1OC(=O)c2ccccc21 (centres undefined)	> 100 µM (inactive)		> 100 µM (inactive)	> 100 µM (inactive)	> 100 µM (inactive)	> 100 µM (inactive)	> 100 µM (inactive)	> 100 µM (inactive)	> 100 µM (inactive)	> 100 µM (inactive)	> 100 µM (inactive)	> 100 µM (inactive)	> 100 µM (inactive)	> 100 µM (inactive)	> 100 µM (inactive)	> 100 µM (inactive)

From ChEMBL document CHEMBL1201862, “PubChem BioAssay data set” (2004)
